# Experimental data taken from patent US20210244686A1, “Novel Systems And Methods For The Therapeutic Use of Cannabinoids or Cannabinoid Analogs to Increase The Lipid Order of Cholesterol Containing Cell Membranes” (The Regents of the University of Colorado a body corporate, priority 2018, published 2021).
# Key:
# SK-N-BE(2) cells [1] = experiment: 13C glucose labelled lipidomics of cholesterol biosynthesis; type: cell-based, human; conditions: 20 μM CBD, 24 hours
# Method: (§1) These findings raise the question of whether CBD treatment leads to alterations in lipid and cholesterol metabolism (the latter pathway depicted in FIG. 3A). The present inventors used mass spectrometry-based lipidomics, a subset of metabolomics, to quantify the effect of CBD on the fluxes of key lipids and sterols. Vehicle and CBD exposed cells were fed ^13C labeled glucose for 24 hours and harvested using methanol extraction and mass spectrometry analysis. Cholesterol biosynthesis was analyzed by determining the level of incorporation of ^13C into biosynthetic intermediates. […] The effect of CBD on total cellular cholesterol was confirmed using a fluorogenic assay for cholesterol in an orthogonal experiment (FIG. 11B).
# Cultured cells were harvested, washed with PBS, flash frozen, and stored at −80 C. until analysis. Prior to LC-MS analysis, samples were placed on ice and re-suspended with methanol:acetonitrile:water (5:3:2, v/v/v) at a concentration of 2 million cells per ml. Suspensions were vortexed continuously for 30 min at 4° C. Insoluble material was removed by centrifugation at 10,000 g for 10 min at 4° C. and supernatants were isolated for metabolomics analysis by UHPLC-MS. This method was used for cholesterol precursors and free headgroups. […]
# SK-N-BE(2) cells [2] = experiment: Fluorometric total cellular cholesterol (Amplex Red Cholesterol Assay Kit); type: cell-based, human; conditions: orthogonal experiment
# From the text: FIG. 11A-C. (A) Plots of 13C labelled (left) and total+labeled cholesterol (right) abundances measured in methanol extracts from vehicle/CBD treated cells. (B) A similar analysis for cholesterol precursors. (C) Fluorometric measurement of total cellular cholesterol from methanol extracts of SK-N-BE(2) cells using the Amplex Red Cholesterol Assay Kit.
# as §1
# HEK293T cells = experiment: Live cell microscopy apoptosis assay (caspase 3/7 dye); type: cell-based; conditions: DHA 75 μM with MBCD 300 μM or CBD 6.25 μM
# Method: In order to gain further insight into the sensitivity of CBD treated cells to 25-hydroxy cholesterol, the present inventors repeated the apoptosis assay in SK-N-BE(2) and HEK293T cells with combinatorial 25-hydroxy cholesterol/CBD stimulation using sublethal doses of 25-hydroxy cholesterol (15 μg/ml) and CBD (20 μM) in the presence or absence of either the chemical inhibitor of cholesterol transport (U18666A, 10 μM) or cholesterol storage (VULM 1457, 5 μM).
# FRAP experiments reveal that DHA and CBD have opposing effects on the lateral diffusion of fluorescently labelled cholesterol in synthetic membranes. Although this implies that CBD increases lipid order and that DHA decreases lipid order, it remains unclear how relevant these biophysical effects of CBD and DHA are to cellular physiology. As a result, the present inventors sought to determine whether CBD and DHA have opposing effects on cells. To this end, the present inventors repeated the live cell apoptosis assays in cells exposed to increasing doses of DHA to determine how DHA affects cell death.
# SK-N-BE(2) cells [3] = experiment: RNAseq transcriptomics of CBD response; type: cell-based, human; conditions: 20 μM CBD
# Method: In order to compare and contrast proteomic derived mechanistic components of the CBD response to that of transcriptomic components, the present inventors additionally performed RNAseq analysis of SK-N-BE(2) cells exposed to vehicle or 20 μM CBD at the time-points indicated in FIG. 1C. 5,643 differentially expressed genes were identified in the CBD response gene with a FDR<1%, which was further reduced to a list of 139 genes with an LFC>=1. […] While most of these annotations are supported by either the transcriptome or the proteome, dysregulation of cholesterol metabolism is supported by both. […] As a result of the agreement between proteomic and transcriptomic data, we focused our study thereafter on determining the role of cholesterol homeostasis in the CBD drug response.
# Sequencing was performed on seven consecutive lanes. Median read counts per lane were ˜49,000 with a CV of ˜7%. Starting with 228 fastq files, each lane set was concatenated per condition. Using Trimmomtic-0.36, base pairs were trimmed if they dropped below a PHRED score of 15 within a sliding window of 4 bp. Remaining reads shorter than 35 base pairs were removed. Illumina adapter sequences were also clipped using Trimmomatic. […] Read alignment was accomplished using Tophat-2.0.13 and Cufflinks/Cuffdiff 2.2.1 was used for FPKM quantitation and differential expression analysis per time point.
compound,measurement,setting,value
"C=C(C)[C@@H]1CCC(C)=C[C@H]1c1c(O)cc(CCCCC)cc1O [CBD, cannabidiol]",labeled and total cholesterol,SK-N-BE(2) cells [1],decrease
same,total and isotopically-labeled levels of cholesterol precursors,SK-N-BE(2) cells [1],accumulate
same,"effect on total cellular cholesterol, fluorogenic assay",SK-N-BE(2) cells [2],confirmed
same,effect on DHA induced apoptosis,HEK293T cells,completely cancel the apoptotic effects
same,HMG-CR expression,SK-N-BE(2) cells [3],transcriptional activation
